Read-outs that look alike come from different tables or passages of the source.
What was measured:
leukemia SR = test: MTT antiproliferative assay; conditions: Homo sapiens, read-out: Cytotoxicity IC50 L.SR
leukemia RPMI-8226 = test: MTT antiproliferative assay; conditions: Homo sapiens
MDA-MB-435 = test: NCI single-dose screen (SRB); type: cell-based; conditions: Homo sapiens; Melanoma MDA-MB-435; 10^−5 M; read-out: Growth inhibition percentage
Experimental: (§1) The methodology of the NCI anticancer screening was described in detail elsewhere (http://www.dtp.nci.nih.gov). […] Tested compounds were added to the culture at a single concentration (10^−5 M) and the cultures were incubated for 48 h. End-point determinations were made with a protein binding dye, SRB. Results for each tested compound were reported as the percentage growth of the treated cells when compared to the untreated control cells. The percentage growth was evaluated spectrophotometrically versus controls not treated with test agents. All experiments were repeated three times (Table 1).
(§2) Briefly, the protocol was performed on 60 human tumor cell lines derived from different nine neoplastic diseases. […] If the results obtained met selection criteria, then the compound was tested again on all 60 cell lines in 5× 10-fold dilutions with the top dose being 10^−4 M or 150 μg/mL. Detailed methods are described in the Supplementary Materials related to this article.
(§3) on their site (http://www.dtp.nci.nih.gov). But briefly, the protocol performed at sixty human
(§4) National Cancer Institute, Bethesda, USA. If the results obtained meet selection criteria, then the
(§5) 10-4 molar or 150 μg/mL. […]

MDA-MB-231/ATCC = test: NCI single-dose screen (SRB); type: cell-based; conditions: Homo sapiens; Breast Cancer MDA-MB-231/ATCC; 10^−5 M; read-out: Growth inhibition percentage
Experimental: as §1, §2, §3, §4, §5

RPMI-8226 = test: NCI single-dose screen (SRB); type: cell-based; conditions: Homo sapiens; Leukemia RPMI-8226; 10^−5 M; read-out: Growth inhibition percentage
Experimental: as §1, §2, §3, §4, §5

UO-31 = test: NCI single-dose screen (SRB); type: cell-based; conditions: Homo sapiens; Renal Cancer UO-31; 10^−5 M; read-out: Growth inhibition percentage
Experimental: as §1, §2, §3, §4, §5

OVCAR-5 = test: NCI single-dose screen (SRB); type: cell-based; conditions: Homo sapiens; Ovarian Cancer OVCAR-5; 10^−5 M; read-out: Growth inhibition percentage
Experimental: as §1, §2, §3, §4, §5

UACC-62 = test: NCI single-dose screen (SRB); type: cell-based; conditions: Homo sapiens; Melanoma UACC-62; 10^−5 M; read-out: Growth inhibition percentage
Experimental: as §1, §2, §3, §4, §5

HOP-92 = test: NCI single-dose screen (SRB); type: cell-based; conditions: Homo sapiens; Non-Small-Cell Lung Cancer HOP-92; 10^−5 M; read-out: Growth inhibition percentage
Experimental: as §1, §2, §3, §4, §5

SK-MEL-5 = test: NCI single-dose screen (SRB); type: cell-based; conditions: Homo sapiens; Melanoma SK-MEL-5; 10^−5 M; read-out: Growth inhibition percentage
Experimental: as §1, §2, §3, §4, §5

A549/ATCC = test: NCI single-dose screen (SRB); type: cell-based; conditions: Homo sapiens; Non-Small-Cell Lung Cancer A549/ATCC; 10^−5 M; read-out: Growth inhibition percentage
Experimental: as §1, §2, §3, §4, §5

NCI-H460 = test: NCI single-dose screen (SRB); type: cell-based; conditions: Homo sapiens; Non-Small-Cell Lung Cancer NCI-H460; 10^−5 M; read-out: Growth inhibition percentage
Experimental: as §1, §2, §3, §4, §5

MOLT-4 = test: NCI single-dose screen (SRB); type: cell-based; conditions: Homo sapiens; Leukemia MOLT-4; 10^−5 M; read-out: Growth inhibition percentage
Experimental: as §1, §2, §3, §4, §5

SF-268 = test: NCI single-dose screen (SRB); type: cell-based; conditions: Homo sapiens; CNS Cancer SF-268; 10^−5 M; read-out: Growth inhibition percentage
Experimental: as §1, §2, §3, §4, §5

OVCAR-4 = test: NCI single-dose screen (SRB); type: cell-based; conditions: Homo sapiens; Ovarian Cancer OVCAR-4; 10^−5 M; read-out: Growth inhibition percentage
Experimental: as §1, §2, §3, §4, §5

CAKI-1 = test: NCI single-dose screen (SRB); type: cell-based; conditions: Homo sapiens; Renal Cancer CAKI-1; 10^−5 M; read-out: Growth inhibition percentage
Experimental: as §1, §2, §3, §4, §5

HCT-116 = test: NCI single-dose screen (SRB); type: cell-based; conditions: Homo sapiens; Colon Cancer HCT-116; 10^−5 M; read-out: Growth inhibition percentage
Experimental: as §1, §2, §3, §4, §5

HCC-2998 = test: NCI single-dose screen (SRB); type: cell-based; conditions: Homo sapiens; Colon Cancer HCC-2998; 10^−5 M; read-out: Growth inhibition percentage
Experimental: as §1, §2, §3, §4, §5

HT29 = test: NCI single-dose screen (SRB); type: cell-based; conditions: Homo sapiens, HT-29; Colon Cancer HT29; 10^−5 M; read-out: Growth inhibition percentage
Experimental: as §1, §2, §3, §4, §5

MALME-3M = test: NCI single-dose screen (SRB); type: cell-based; conditions: Homo sapiens; Melanoma MALME-3M; 10^−5 M; read-out: Growth inhibition percentage
Experimental: as §1, §2, §3, §4, §5

HCT-15 = test: NCI single-dose screen (SRB); type: cell-based; conditions: Homo sapiens; Colon Cancer HCT-15; 10^−5 M; read-out: Growth inhibition percentage
Experimental: as §1, §2, §3, §4, §5

NCI-H522 = test: NCI single-dose screen (SRB); type: cell-based; conditions: Homo sapiens; Non-Small-Cell Lung Cancer NCI-H522; 10^−5 M; read-out: Growth inhibition percentage
Experimental: as §1, §2, §3, §4, §5

PC-3 = test: NCI single-dose screen (SRB); type: cell-based; conditions: Homo sapiens; Prostate Cancer PC-3; 10^−5 M; read-out: Growth inhibition percentage
Experimental: as §1, §2, §3, §4, §5

KM12 = test: NCI single-dose screen (SRB); type: cell-based; conditions: Homo sapiens; Colon Cancer KM12; 10^−5 M; read-out: Growth inhibition percentage
Experimental: as §1, §2, §3, §4, §5

SK-MEL-2 = test: NCI single-dose screen (SRB); type: cell-based; conditions: Homo sapiens; Melanoma SK-MEL-2; 10^−5 M; read-out: Growth inhibition percentage
Experimental: as §1, §2, §3, §4, §5

MDA-MB-468 = test: NCI single-dose screen (SRB); type: cell-based; conditions: Homo sapiens; Breast Cancer MDA-MB-468; 10^−5 M; read-out: Growth inhibition percentage
Experimental: as §1, §2, §3, §4, §5

HS 578T = test: NCI single-dose screen (SRB); type: cell-based; conditions: Homo sapiens; Breast Cancer HS 578T; 10^−5 M; read-out: Growth inhibition percentage
Experimental: as §1, §2, §3, §4, §5

EKVX = test: NCI single-dose screen (SRB); type: cell-based; conditions: Homo sapiens; Non-Small-Cell Lung Cancer EKVX; 10^−5 M; read-out: Growth inhibition percentage
Experimental: as §1, §2, §3, §4, §5

SF-539 = test: NCI single-dose screen (SRB); type: cell-based; conditions: Homo sapiens; CNS Cancer SF-539; 10^−5 M; read-out: Growth inhibition percentage
Experimental: as §1, §2, §3, §4, §5

UACC-257 = test: NCI single-dose screen (SRB); type: cell-based; conditions: Homo sapiens; Melanoma UACC-257; 10^−5 M; read-out: Growth inhibition percentage
Experimental: as §1, §2, §3, §4, §5

[1] = RPMI-8226, read-out: Cytotoxicity IC50 RPMI-8226, MTT, mean ± SD

Work on `COc1cc2c(c(OC)c1OC)-c1ccc(OC)c(=O)cc1[C@@H](NC(C)=O)CC2` [Colchicine, colchicine, reference compound] yielded an IC50 (leukemia SR) of 1.81 ± 0.0701 µM and an IC50 (leukemia RPMI-8226; RPMI-8226, read-out: Cytotoxicity IC50 RPMI-8226) of 4.05 ± 0.0478 µM.
`COC(=O)C=C1SC(=NNC(=O)c2cc3ccc2CCc2ccc(cc2)CC3)N(c2ccccc2)C1=O` [Compound 3a] was tested, and the IC50 (leukemia SR) was 1.11 ± 0.0685 µM, the inhibition at 10 µM (MDA-MB-435) was 10.4% and the inhibition at 10 µM (MDA-MB-231/ATCC) was 67.5%. For the same compound, the inhibition at 10 µM (RPMI-8226) was 121%, the inhibition at 10 µM (UO-31) was 41.5% and the inhibition at 10 µM (OVCAR-5) was 51.8%. It also gave an inhibition at 10 µM (UACC-62) of 74.8%, an inhibition at 10 µM (HOP-92) of 24.7% and an inhibition at 10 µM (SK-MEL-5) of 30.6%. The inhibition at 10 µM (A549/ATCC) was 30.9%, the inhibition at 10 µM (NCI-H460) was 39.4% and the inhibition at 10 µM (MOLT-4) was 97%. The inhibition at 10 µM (SF-268) was 27.5%, the inhibition at 10 µM (OVCAR-4) was 70.6% and the inhibition at 10 µM (CAKI-1) was 94.7%. For the same compound, the inhibition at 10 µM (HCT-116) was 96%, the inhibition at 10 µM (HCC-2998) was 96.4% and the inhibition at 10 µM (HT29) was 113%. The inhibition at 10 µM (MALME-3M) was 21.2%, the inhibition at 10 µM (HCT-15) was 99.7% and the inhibition at 10 µM (NCI-H522) was 58.5%. The inhibition at 10 µM (PC-3) was 136%, the inhibition at 10 µM (KM12) was 91.5% and the inhibition at 10 µM (SK-MEL-2) was 13%. It also gave an inhibition at 10 µM (MDA-MB-468) of 100%, an inhibition at 10 µM (HS 578T) of 22.1% and an inhibition at 10 µM (EKVX) of 41%. For the same compound, the inhibition at 10 µM (SF-539) was 122%, the inhibition at 10 µM (UACC-257) was 30.8% and the IC50 (leukemia RPMI-8226; [1]) was 1.61 ± 0.0654 µM.
`COC(=O)C=C1SC(=NNC(=O)c2cc3ccc2CCc2ccc(cc2)CC3)N(Cc2ccccc2)C1=O` [Compound 3b] was tested, and the IC50 (leukemia SR) was 2.02 ± 0.0688 µM, the inhibition at 10 µM (MDA-MB-435) was 8.44% and the inhibition at 10 µM (MDA-MB-231/ATCC) was 43.2%. For the same compound, the inhibition at 10 µM (RPMI-8226) was 147%, the inhibition at 10 µM (UO-31) was 55% and the inhibition at 10 µM (OVCAR-5) was 34.6%. It also gave an inhibition at 10 µM (UACC-62) of 48.1%, an inhibition at 10 µM (HOP-92) of 24.5% and an inhibition at 10 µM (SK-MEL-5) of 17.7%. For the same compound, the inhibition at 10 µM (A549/ATCC) was 22.9%, the inhibition at 10 µM (NCI-H460) was 6.29% and the inhibition at 10 µM (MOLT-4) was 98.9%. For the same compound, the inhibition at 10 µM (SF-268) was 14.9%, the inhibition at 10 µM (OVCAR-4) was 55.4% and the inhibition at 10 µM (CAKI-1) was 84.4%. The inhibition at 10 µM (HCT-116) was 50.5%, the inhibition at 10 µM (HCC-2998) was 20.5% and the inhibition at 10 µM (HT29) was 87.6%. It also gave an inhibition at 10 µM (MALME-3M) of 11.6%, an inhibition at 10 µM (HCT-15) of 72.2% and an inhibition at 10 µM (NCI-H522) of 84.1%. For the same compound, the inhibition at 10 µM (PC-3) was 82.2%, the inhibition at 10 µM (KM12) was 34.9% and the inhibition at 10 µM (SK-MEL-2) was 14.4%. The inhibition at 10 µM (MDA-MB-468) was 78.9%, the inhibition at 10 µM (HS 578T) was 12.6% and the inhibition at 10 µM (EKVX) was 22.3%. It also gave an inhibition at 10 µM (SF-539) of 56.7%, an inhibition at 10 µM (UACC-257) of 19% and an IC50 (leukemia RPMI-8226; [1]) of 4.62 ± 0.0459 µM.

Reference: publication PMC7411887, “New Paracyclophanylthiazoles with Anti-Leukemia Activity: Design, Synthesis, Molecular Docking, and Mechanistic Studies” (Molecules, 2020)
